The source of these data is ChEMBL document CHEMBL5463729, “Data for DCP probe BAY 1753011” (2023).

The target of assay [1] is T1, cGMP-dependent protein kinase 1 (Homo sapiens) (UniProt Q13976).
T1 sequence (whole entry): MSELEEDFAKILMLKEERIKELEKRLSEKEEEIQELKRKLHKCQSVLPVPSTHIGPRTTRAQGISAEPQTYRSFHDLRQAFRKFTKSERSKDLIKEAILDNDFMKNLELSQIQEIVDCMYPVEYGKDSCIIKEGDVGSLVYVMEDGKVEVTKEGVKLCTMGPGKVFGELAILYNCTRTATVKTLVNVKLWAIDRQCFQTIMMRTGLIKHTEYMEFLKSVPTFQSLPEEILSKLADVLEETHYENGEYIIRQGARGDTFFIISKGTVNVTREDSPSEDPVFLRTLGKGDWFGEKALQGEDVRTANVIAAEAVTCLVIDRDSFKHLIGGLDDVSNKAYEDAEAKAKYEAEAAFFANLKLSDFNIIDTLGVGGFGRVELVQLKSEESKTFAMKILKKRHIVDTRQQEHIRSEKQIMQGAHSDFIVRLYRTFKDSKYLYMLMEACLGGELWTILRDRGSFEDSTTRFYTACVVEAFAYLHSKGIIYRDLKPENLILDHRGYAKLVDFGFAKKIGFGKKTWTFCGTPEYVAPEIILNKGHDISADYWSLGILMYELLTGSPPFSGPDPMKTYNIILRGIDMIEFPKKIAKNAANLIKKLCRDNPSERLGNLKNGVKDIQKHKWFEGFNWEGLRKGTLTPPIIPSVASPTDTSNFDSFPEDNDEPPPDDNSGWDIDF
Put plainly: Inhibition of PKG1alpha(h) at 10.0 µM in the Eurofins Kinase panel. Conditions: Compound concentration 10.0 uM.

Assay [2] deals with MAP kinase-interacting serine/threonine-protein kinase 2 (Homo sapiens) (UniProt Q9HBH9). The assay is described as follows: Inhibition of Mnk2(h) at 10.0 µM in the Eurofins Kinase panel. Conditions: Compound concentration 10.0 uM.
For assay [3], the target named is Dual specificity mitogen-activated protein kinase kinase 6 (Homo sapiens) (UniProt P52564). The assay is described as follows: Inhibition of MKK6(h) at 10.0 µM in the Eurofins Kinase panel. As to conditions: Compound concentration 10.0 uM.
Assay [4] concerns the target Mitogen-activated protein kinase kinase kinase 21 (Homo sapiens) (UniProt Q5TCX8). Put plainly: Inhibition of MLK4(h) at 10.0 µM in the Eurofins Kinase panel. Conditions: Compound concentration 10.0 uM.
For assay [5], the target named is Cyclin-dependent kinase-like 4 (Homo sapiens) (UniProt Q5MAI5). The assay is described as follows: Inhibition of CDKL4(h) at 10.0 µM in the Eurofins Kinase panel. As to conditions: Compound concentration 10.0 uM.
Assay [6] concerns the target Muscle, skeletal receptor tyrosine-protein kinase (Homo sapiens) (UniProt O15146). The assay is described as follows: Inhibition of MuSK(h) at 10.0 µM in the Eurofins Kinase panel. Conditions: Compound concentration 10.0 uM.
For assay [7], the target named is Tyrosine-protein kinase ITK/TSK (Homo sapiens) (UniProt Q08881). Put plainly: Inhibition of Itk(h) at 10.0 µM in the Eurofins Kinase panel. As to conditions: Compound concentration 10.0 uM.
The target of assay [8] is Calcium/calmodulin-dependent protein kinase type II subunit beta (Homo sapiens) (UniProt Q13554). The assay is described as follows: Inhibition of CaMKIIbeta(h) at 10.0 µM in the Eurofins Kinase panel. Conditions: Compound concentration 10.0 uM.
Assay [9] deals with Serine/threonine-protein kinase Nek6 (Homo sapiens) (UniProt Q9HC98). Put plainly: Inhibition of NEK6(h) at 10.0 µM in the Eurofins Kinase panel. Conditions: Compound concentration 10.0 uM.
Assay [10] has as its target Serine/threonine-protein kinase DCLK2 (Homo sapiens) (UniProt Q8N568). The assay is described as follows: Inhibition of DCAMKL2(h) at 10.0 µM in the Eurofins Kinase panel. As to conditions: Compound concentration 10.0 uM.
The target of assay [11] is Cytoplasmic tyrosine-protein kinase BMX (Homo sapiens) (UniProt P51813). The assay is described as follows: Inhibition of Bmx(h) at 10.0 µM in the Eurofins Kinase panel. As to conditions: Compound concentration 10.0 uM.
Assay [12] addresses PAS domain-containing serine/threonine-protein kinase (Homo sapiens) (UniProt Q96RG2). The assay is described as follows: Inhibition of PASK(h) at 10.0 µM in the Eurofins Kinase panel. As to conditions: Compound concentration 10.0 uM.
The target of assay [13] is Mitogen-activated protein kinase kinase kinase 5 (Homo sapiens) (UniProt Q99683). Put plainly: Inhibition of ASK1(h) at 10.0 µM in the Eurofins Kinase panel. As to conditions: Compound concentration 10.0 uM.
For assay [14], the target named is Protein kinase C beta type (Homo sapiens) (UniProt P05771). Put plainly: Inhibition of PKCbetaI(h) at 10.0 µM in the Eurofins Kinase panel. Conditions: Compound concentration 10.0 uM.
For assay [15], the target named is Mitogen-activated protein kinase kinase kinase 3 (Homo sapiens) (UniProt Q99759). The assay is described as follows: Inhibition of MEKK3(h) at 10.0 µM in the Eurofins Kinase panel. Conditions: Compound concentration 10.0 uM.
The target in assay [16] is B2 bradykinin receptor (Homo sapiens) (UniProt P30411). As to conditions: Compound concentration 10.0 uM.
Assay [17] addresses MAP/microtubule affinity-regulating kinase 4 (Homo sapiens) (UniProt Q96L34). Put plainly: Inhibition of MARK4(h) at 10.0 µM in the Eurofins Kinase panel. As to conditions: Compound concentration 10.0 uM.
The target in assay [18] is D(1B) dopamine receptor (Homo sapiens) (UniProt P21918). As to conditions: Compound concentration 10.0 uM.
The target in the next assay is T2, Oxytocin receptor (Homo sapiens, UniProt P30559).
T2 sequence (P30559 whole entry): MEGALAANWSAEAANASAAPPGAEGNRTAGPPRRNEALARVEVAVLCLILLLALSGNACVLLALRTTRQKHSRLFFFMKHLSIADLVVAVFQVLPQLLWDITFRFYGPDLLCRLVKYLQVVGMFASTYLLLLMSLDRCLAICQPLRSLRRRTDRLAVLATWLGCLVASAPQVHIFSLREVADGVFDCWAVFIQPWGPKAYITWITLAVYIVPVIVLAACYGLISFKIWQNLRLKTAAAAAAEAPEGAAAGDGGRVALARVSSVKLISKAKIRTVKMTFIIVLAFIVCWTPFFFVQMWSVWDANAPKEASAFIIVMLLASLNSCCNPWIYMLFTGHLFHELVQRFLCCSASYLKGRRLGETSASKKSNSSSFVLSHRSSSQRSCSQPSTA
The assay is described as follows: Radiometric OXTR binding assay (Eurofins #260900).

The target in assay [19] is Rhodopsin kinase GRK7 (Homo sapiens) (UniProt Q8WTQ7). Put plainly: Inhibition of GRK7(h) at 10.0 µM in the Eurofins Kinase panel. Conditions: Compound concentration 10.0 uM.
Assay [20] concerns the target T3, Alpha-2C adrenergic receptor (Homo sapiens) (UniProt P18825).
T3 sequence (whole entry): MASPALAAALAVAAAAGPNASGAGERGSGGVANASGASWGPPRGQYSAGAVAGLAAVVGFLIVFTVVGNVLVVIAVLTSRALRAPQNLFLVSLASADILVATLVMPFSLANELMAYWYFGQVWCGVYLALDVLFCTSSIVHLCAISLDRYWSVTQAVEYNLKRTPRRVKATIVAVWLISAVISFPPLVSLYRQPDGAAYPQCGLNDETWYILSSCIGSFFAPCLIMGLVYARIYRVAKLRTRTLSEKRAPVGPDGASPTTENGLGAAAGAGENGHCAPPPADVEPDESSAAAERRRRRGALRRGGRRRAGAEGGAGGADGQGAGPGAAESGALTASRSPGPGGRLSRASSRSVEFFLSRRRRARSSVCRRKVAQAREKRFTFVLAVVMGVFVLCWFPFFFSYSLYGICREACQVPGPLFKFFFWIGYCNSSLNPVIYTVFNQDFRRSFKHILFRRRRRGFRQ
Conditions: Compound concentration 10.0 uM.

Activity calls are given as the source filed them. The rule behind the calls is not given here.

D(1B) dopamine receptor (Homo sapiens), sequence (P21918 whole entry): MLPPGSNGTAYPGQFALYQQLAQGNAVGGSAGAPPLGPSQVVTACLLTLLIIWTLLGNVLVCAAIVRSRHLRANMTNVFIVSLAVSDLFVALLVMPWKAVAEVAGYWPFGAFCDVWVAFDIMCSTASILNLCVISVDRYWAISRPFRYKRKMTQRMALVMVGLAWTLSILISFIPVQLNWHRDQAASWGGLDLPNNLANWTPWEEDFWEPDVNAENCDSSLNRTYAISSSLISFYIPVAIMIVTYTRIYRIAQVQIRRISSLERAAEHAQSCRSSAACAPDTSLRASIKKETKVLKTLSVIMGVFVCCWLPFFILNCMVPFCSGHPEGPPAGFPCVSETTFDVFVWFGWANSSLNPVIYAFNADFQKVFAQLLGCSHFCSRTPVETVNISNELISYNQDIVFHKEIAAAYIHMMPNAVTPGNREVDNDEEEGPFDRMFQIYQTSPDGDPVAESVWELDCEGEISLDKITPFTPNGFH
Serine/threonine-protein kinase DCLK2 (Homo sapiens), sequence (Q8N568 whole entry): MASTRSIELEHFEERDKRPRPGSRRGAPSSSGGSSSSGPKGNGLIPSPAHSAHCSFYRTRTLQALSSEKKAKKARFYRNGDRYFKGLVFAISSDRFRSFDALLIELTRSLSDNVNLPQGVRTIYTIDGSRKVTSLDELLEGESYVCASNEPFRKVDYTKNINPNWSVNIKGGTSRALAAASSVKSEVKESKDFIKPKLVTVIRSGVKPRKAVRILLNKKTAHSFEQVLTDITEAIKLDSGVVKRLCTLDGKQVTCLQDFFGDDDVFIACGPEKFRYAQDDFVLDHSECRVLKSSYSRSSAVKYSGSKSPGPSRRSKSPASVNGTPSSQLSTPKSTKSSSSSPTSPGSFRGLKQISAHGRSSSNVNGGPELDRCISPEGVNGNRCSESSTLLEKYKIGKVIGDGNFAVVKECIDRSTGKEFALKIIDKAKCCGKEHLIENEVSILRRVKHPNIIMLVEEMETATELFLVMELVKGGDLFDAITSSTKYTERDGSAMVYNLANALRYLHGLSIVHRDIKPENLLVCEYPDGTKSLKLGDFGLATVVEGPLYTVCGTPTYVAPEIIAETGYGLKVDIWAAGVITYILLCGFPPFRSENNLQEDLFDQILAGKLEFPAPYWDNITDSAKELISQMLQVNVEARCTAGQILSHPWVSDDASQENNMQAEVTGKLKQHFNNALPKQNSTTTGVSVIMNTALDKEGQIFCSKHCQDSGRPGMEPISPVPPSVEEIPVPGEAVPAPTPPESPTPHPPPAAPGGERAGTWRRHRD
B2 bradykinin receptor (Homo sapiens), sequence (P30411 whole entry): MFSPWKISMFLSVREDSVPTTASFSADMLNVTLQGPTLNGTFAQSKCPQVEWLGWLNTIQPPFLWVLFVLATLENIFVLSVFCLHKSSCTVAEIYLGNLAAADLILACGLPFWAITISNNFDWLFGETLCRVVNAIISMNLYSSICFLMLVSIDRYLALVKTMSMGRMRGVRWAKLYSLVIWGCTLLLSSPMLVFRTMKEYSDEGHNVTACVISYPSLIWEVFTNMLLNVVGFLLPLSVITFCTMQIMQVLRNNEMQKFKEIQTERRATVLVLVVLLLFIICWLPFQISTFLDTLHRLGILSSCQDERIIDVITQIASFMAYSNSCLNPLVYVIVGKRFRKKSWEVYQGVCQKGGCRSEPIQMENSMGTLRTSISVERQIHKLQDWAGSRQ
Rhodopsin kinase GRK7 (Homo sapiens), sequence (Q8WTQ7 whole entry): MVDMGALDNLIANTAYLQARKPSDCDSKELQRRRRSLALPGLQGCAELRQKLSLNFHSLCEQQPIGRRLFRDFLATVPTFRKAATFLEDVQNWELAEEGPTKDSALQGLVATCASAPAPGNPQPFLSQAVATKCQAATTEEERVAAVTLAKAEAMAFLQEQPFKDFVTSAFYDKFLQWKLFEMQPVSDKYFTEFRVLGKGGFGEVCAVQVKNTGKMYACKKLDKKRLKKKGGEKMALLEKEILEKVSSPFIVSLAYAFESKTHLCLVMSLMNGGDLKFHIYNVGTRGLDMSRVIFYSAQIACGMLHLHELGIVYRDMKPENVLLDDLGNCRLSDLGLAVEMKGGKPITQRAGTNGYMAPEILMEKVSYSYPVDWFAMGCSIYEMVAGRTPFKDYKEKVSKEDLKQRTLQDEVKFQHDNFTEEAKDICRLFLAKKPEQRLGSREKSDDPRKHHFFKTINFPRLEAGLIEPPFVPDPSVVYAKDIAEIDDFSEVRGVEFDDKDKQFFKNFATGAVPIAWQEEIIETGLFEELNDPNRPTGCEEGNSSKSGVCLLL
Muscle, skeletal receptor tyrosine-protein kinase (Homo sapiens), sequence (O15146 whole entry): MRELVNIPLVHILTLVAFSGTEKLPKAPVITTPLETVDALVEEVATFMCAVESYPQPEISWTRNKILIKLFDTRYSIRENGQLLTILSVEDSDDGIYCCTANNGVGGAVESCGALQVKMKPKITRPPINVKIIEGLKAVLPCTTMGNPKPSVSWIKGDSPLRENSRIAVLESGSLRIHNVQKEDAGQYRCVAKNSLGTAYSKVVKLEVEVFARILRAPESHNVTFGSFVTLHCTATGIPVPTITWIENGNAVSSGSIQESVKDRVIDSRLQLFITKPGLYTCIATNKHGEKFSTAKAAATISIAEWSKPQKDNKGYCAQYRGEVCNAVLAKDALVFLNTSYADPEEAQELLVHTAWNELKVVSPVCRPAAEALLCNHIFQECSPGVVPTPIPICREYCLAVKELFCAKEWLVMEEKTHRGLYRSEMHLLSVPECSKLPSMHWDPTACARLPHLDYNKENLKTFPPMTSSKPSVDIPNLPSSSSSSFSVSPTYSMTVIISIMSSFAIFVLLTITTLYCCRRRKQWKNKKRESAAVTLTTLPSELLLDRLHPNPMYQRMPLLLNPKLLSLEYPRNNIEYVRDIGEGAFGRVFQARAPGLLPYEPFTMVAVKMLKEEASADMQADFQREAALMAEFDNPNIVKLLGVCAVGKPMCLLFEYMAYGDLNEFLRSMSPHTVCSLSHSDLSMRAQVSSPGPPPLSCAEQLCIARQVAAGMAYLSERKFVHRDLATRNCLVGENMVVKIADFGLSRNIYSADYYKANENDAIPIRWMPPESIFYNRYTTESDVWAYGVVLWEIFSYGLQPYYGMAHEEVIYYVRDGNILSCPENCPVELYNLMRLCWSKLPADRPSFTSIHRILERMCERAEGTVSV
Dual specificity mitogen-activated protein kinase kinase 6 (Homo sapiens), sequence (P52564 whole entry): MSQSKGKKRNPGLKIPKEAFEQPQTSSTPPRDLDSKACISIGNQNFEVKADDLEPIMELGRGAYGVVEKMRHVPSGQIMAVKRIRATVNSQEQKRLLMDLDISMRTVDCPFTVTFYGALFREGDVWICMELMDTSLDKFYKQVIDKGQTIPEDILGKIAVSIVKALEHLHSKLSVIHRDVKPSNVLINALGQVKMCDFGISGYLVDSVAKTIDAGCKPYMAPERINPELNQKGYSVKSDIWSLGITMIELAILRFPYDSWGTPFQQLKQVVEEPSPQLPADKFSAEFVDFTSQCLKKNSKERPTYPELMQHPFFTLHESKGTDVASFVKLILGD
Protein kinase C beta type (Homo sapiens), sequence (P05771 2-671 limits assumed): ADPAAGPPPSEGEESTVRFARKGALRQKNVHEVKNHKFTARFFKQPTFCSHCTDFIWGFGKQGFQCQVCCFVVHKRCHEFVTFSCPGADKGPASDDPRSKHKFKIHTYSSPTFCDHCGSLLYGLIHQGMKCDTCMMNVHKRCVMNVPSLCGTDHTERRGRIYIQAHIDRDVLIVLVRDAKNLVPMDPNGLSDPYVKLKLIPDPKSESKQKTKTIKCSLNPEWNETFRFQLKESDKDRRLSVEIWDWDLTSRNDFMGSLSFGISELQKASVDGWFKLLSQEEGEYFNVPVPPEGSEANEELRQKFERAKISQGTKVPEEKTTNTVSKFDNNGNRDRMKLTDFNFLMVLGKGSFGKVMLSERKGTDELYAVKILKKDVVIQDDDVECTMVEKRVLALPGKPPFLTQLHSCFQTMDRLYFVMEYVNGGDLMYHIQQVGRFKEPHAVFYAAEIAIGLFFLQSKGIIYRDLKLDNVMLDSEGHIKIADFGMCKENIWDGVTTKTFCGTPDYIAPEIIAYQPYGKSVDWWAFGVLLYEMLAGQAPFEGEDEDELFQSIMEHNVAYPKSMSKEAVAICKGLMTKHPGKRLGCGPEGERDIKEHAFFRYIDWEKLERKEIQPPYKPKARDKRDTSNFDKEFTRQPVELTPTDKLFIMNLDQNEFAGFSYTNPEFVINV
Cytoplasmic tyrosine-protein kinase BMX (Homo sapiens), sequence (P51813 whole entry, the tested form may be a part): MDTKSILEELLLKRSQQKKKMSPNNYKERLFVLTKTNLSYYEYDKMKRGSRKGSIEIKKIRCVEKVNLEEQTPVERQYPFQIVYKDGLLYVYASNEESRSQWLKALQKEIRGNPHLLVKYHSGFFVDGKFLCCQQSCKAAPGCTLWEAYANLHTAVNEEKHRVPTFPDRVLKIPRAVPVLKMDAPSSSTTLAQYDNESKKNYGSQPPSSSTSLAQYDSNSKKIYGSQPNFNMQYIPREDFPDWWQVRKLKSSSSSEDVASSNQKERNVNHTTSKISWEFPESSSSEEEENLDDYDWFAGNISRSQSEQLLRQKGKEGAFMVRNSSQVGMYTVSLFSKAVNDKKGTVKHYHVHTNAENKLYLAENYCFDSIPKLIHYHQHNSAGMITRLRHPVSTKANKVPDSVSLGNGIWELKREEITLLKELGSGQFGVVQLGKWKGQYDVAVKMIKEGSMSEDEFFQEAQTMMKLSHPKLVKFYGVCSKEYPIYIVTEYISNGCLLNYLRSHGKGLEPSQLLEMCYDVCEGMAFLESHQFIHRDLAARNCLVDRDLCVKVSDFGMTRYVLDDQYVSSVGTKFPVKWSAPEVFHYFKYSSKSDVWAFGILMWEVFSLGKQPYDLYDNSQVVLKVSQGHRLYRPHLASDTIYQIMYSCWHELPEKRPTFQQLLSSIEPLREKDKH

Usually inhibition stands for the change of the read-out against control, counted positive when it falls. As a reminder, the Ki is a dissociation constant, usually derived from enzyme kinetics or from competition with a known ligand. As for `O=c1n(Cc2cncn2-c2cccc(Cl)c2)nc(-c2ccc(Cl)cc2)n1C[C@H](O)C(F)(F)F`, the inhibition in assay [1] is -0.21%; in assay [2], -0.78%; in assay [3], 5.77%; in [4], 8.45%; in assay [5] it was -1.89%; in [6] it was 0.19%. The inhibition is -2.65% in [7]; -8.58% in assay [8]; 5.32% in assay [9]; -8.53% in [10]; -7.7% in assay [11]; -0.36% in assay [12]. Further, the inhibition is -1.47% in [13]; 1% in assay [14]; 7.5% in [15]; -10% in assay [16]; 2.56% in assay [17]; 19.6% in assay [18]. For the same molecule, the inhibition in assay [19] was -3.6%; in [20], -3%. The inhibition constant Ki at Oxytocin receptor is reported as > 10 µM (not active).
Take `C[C@H](O)c1nc(Cn2nc(-c3ccc(Cl)cc3)n(C[C@H](O)C(F)(F)F)c2=O)nn1-c1cccc(Cl)c1` [PECAVAPTAN]: the inhibition is -5.35% in assay [1]; 3.54% in assay [2]; 7.34% in assay [3]; 6.1% in assay [4]; 5.63% in assay [5]; -2.36% in [6]. In addition, the inhibition in assay [7] is -7.19%; in [8] it was -0.27%; in assay [9], 4.93%; in [10], -9.34%; in [11], -9.46%; in assay [12] it was -4.97%. The inhibition was -8.63% in [13]; 2.79% in [14]; 2.27% in assay [15]; 1% in assay [16]; 2.7% in assay [17]; 1.94% in [18]. The inhibition in assay [19] was 0.06%; in assay [20], 11%. Also, on Oxytocin receptor, the inhibition constant Ki was 0.0051 µM (active).
